Laboratory results published in patent publication US7119105B2, “Methods for treating neurodegenerative disorders using aspartyl protease inhibitors” (The Regents of the University of California, priority 1997, dated 2006).

How the values were obtained:
Format in all cases: cell-based, rat
cathepsin D isoforms = assay: Cathepsin D isoforms in hippocampal slice cultures, Western blot; conditions: ZPAD alone
Procedure: (§1) Organotypic hippocampal cultures were prepared using the technique of Stoppini, et al. (J. Neurosci. Meth., 37:173–182 (1991)). Briefly, hippocampi were harvested from brains of 9–11 days old Sprague-Dawley rat pups under sterile condition. Horizontal sections vertical to the long axis of hippocampus were cut at 400 μm and collected in a cutting medium consisting of MEM (with Earle's salts, Gibco), 25 mM HEPES, 10 mM Tris Base, 10 mM Glucose, and 3 mM MgCl2 (pH 7.2). Slices were positioned onto 30 mm cell culture inserts (Millicell-CM, Millipore, Bedford, Mass.) that were placed in 6 well culture trays with 1 ml of growth medium (MEM with Hank's salts, Gibco, 20% horse serum, 3 mM glutamine, 25 mM HEPES, 5 mM NaHCO3, 25 mM glucose, 0.5 mM ascorbate, 2 mM CaCl2, 2.5 mM MgCl2, 0.5 mg/l insulin, and penicillin, pH 7.2; 9). […]
(§2) Experiments were carried out using a yoked design in which one of the six culture trays was always used as a control and values for experimentally treated slices were expressed as percents of the same plate control. […]
(§3) Hippocampal slices were collected and sonicated in 10 mM Tris-HCl buffer (pH 7.4) containing 0.32 M sucrose, 2 mM EDTA, 2 mM EGTA, and 0.1 mM leupeptin. […] Immunoblots were scanned and the digitized images were quantitatively analyzed by densitometry using the NIH Image analysis system program.

[1] = test system: phosphorylated tau fragment; assay: Phosphorylated tau fragments in entorhinohippocampal slice cultures (immunoblot); conditions: six days; ZPAD 20 μM, CEL5-172 10 μM, EA-1 1 μM; vs control
Procedure: Briefly, the caudal pole of the cerebral hemisphere containing the entorhinal cortex and hippocampus were harvested from brains of 6–7 days old Sprague-Dawley rat pups under sterile condition. 400 μm horizontal entorhinohippocampal sections cut vertical to the long axes of hippocampus were obtained using a McIlwain tissue chopper in a cutting medium consisting of MEM (with Earle's salts, Gibco), 25 mM HEPES, 10 mM Tris Base, 10 mM Glucose, and 3 mM MgCl2 (pH 7.2). Brain tissue explants were then planted onto 30 mm cell culture inserts (Illicell-CM, Millipore, Bedford, Mass.) that were placed in 6 well culture trays with 1 mL of growth medium (MEM with Hank's salts, Gibco, 20% horse serum, 3 mM glutamine, 25 mM HEPES, 5 mM NaHCO3, 25 mM glucose, 0.5 mM ascorbate, 2 mM CaCl2, 2.5 mM MgCl2, 0.5 mg/L insulin, and penicillin, pH 7.2; Bi, et al., J. Comp. Neuro., 401, 382–394 (1998). The cultures were incubated at 35° C. with a 5% CO2-enriched atmosphere and fed every other day until use.
For western blot, entorhinohippocampal explants were collected and sonicated in 10 mM Tris-HCl buffer (pH 7.4) containing 0.32 M sucrose, 2 mM EDTA, 2 mM EGTA, and 0.1 mM leupeptin. […] Immunoblots were scanned, and the digitized images were quantitatively analyzed by densitometry using the NIH Image analysis system program. […]

[2] = test system: hyperphosphorylated tau fragments (tau 29); assay: Hyperphosphorylated tau fragments (tau 29) in hippocampal slice cultures, AT8 Western blot
Procedure: Organotypic hippocampal cultures were prepared using the technique of Stoppini, et al. (J. Neurosci. Meth., 37:173–182 (1991)). Briefly, hippocampi were harvested from brains of 9–11 days old Sprague-Dawley rat pups under sterile condition. Horizontal sections vertical to the long axis of hippocampus were cut at 400 μm and collected in a cutting medium consisting of MEM (with Earle's salts, Gibco), 25 mM HEPES, 10 mM Tris Base, 10 mM Glucose, and 3 mM MgCl2 (pH 7.2). Slices were positioned onto 30 mm cell culture inserts (Millicell-CM, Millipore, Bedford, Mass.) that were placed in 6 well culture trays with 1 ml of growth medium (MEM with Hank's salts, Gibco, 20% horse serum, 3 mM glutamine, 25 mM HEPES, 5 mM NaHCO3, 25 mM glucose, 0.5 mM ascorbate, 2 mM CaCl2, 2.5 mM MgCl2, 0.5 mg/l insulin, and penicillin, pH 7.2; 9). The cultures were incubated at 35° C. with a 5% CO2-enriched atmosphere with medium changed every other day until use. Incubations were carried out for 14 days before the start of experiments. This period is sufficient for the slices to take on a variety of adult characteristics (Bahr, J Neurosci Res., 42:294–305 (1995); and Muller, et al., Dev. Brain Res., 71:93–100 (1993)).
Experiments were carried out using a yoked design in which one of the six culture trays was always used as a control and values for experimentally treated slices were expressed as percents of the same plate control. Hippocampal slice cultures were exposed to medium containing one of three cathepsin D inhibitors (see, below) or to ‘ZPAD’ (N-CBZ-L-phenylalanyl-L-alanine-diazomethylketone), a selective inhibitor of cathepsins B and L (Green, et al., J. Biol. Chem., 256:1923–1928 (1981); Richardson, et al., J. Cell Biol., 107:2097–2107 (1988); and Shaw, et al., Biochem. J., 186:385–390 (1980)). […]
as §3

29 kDa APP fragment = assay: APP fragment in entorhinohippocampal slice cultures (immunoblot, anti-C APP643-695); conditions: six days; ZPAD 20 μM, CEL5-172 10 μM; vs control
Procedure: Organotypic entorhinohippocampal cultures were prepared using the technique of Stoppini, et al., J. Neurosci. Methods, 37, 173–182 (1991). Briefly, the caudal pole of the cerebral hemisphere containing the entorhinal cortex and hippocampus were harvested from brains of 6–7 days old Sprague-Dawley rat pups under sterile condition. 400 μm horizontal entorhinohippocampal sections cut vertical to the long axes of hippocampus were obtained using a McIlwain tissue chopper in a cutting medium consisting of MEM (with Earle's salts, Gibco), 25 mM HEPES, 10 mM Tris Base, 10 mM Glucose, and 3 mM MgCl2 (pH 7.2). […]
as §3, with “For western blot, entorhinohippocampal explants” for “Hippocampal slices”, “scanned,” for “scanned”, “program. […]” for “program.”

[3] = test system: native (unphosphorylated) tau; assay: Native tau isoforms and 29 kDa fragment in hippocampal slice cultures, tau 1 Western blot; conditions: ZPAD six-day treatment, tau 1 antibody
Procedure: as §1, §2, §3

Substance: N-CBZ-L-phenylalanyl-L-alanine-diazomethylketone [ZPAD]
- increase in heavy chain isoform of cathepsin D (cathepsin D isoforms): 70%
- effect on procathepsin D (cathepsin D isoforms; 6 days): modest increases
- concentration of phosphorylated tau fragment, inhibitor by itself [1]: increases
- effect on tau 29 concentration, inhibitor by itself ([2]; 2-6 days, CEL5 5 μM, EA-1 at concentrations tested, ZPAD 20 μM): increased
- increase in the hyperphosphorylated tau fragment (mean±s.e.m.) ([2]; ZPAD 20 μM by itself, 6 days, vs yoked control, 5 experiments): 104±18%
- time at which ZPAD induced increases in phosphorylated tau fragment appeared ([2]; earliest time point tested): 48 h
- concentration of 29 kDa APP fragment, inhibitor by itself (29 kDa APP fragment): increases
- increase in 29 kDa fragments [3]: 101%
- reduction of native tau concentrations (four isoforms) from yoked controls ([3]; n=8): 19–32%
